Where two headings read alike, the source gives them in different places.
Legend:
[1] = target: human Fatty Acid Amide Hydrolase (FAAH) (Homo sapiens (Human), UniProt O00519); test: biochemical
[2] = target: rat Fatty Acid Amide Hydrolase (FAAH) (Rattus norvegicus (Rat), UniProt P97612); test: FAAH in vitro fluorescence assay (AAMCA hydrolysis), rat enzyme; type: biochemical; conditions: for inhibition at 0.1 µM: read-out: rFAAH % inhibition at 100 nM, 100 nM (tier I)
Protocol: Material and Reagents: All reagents were purchased from Sigma-Aldrich unless specified. […] Chaperone protein groEL-groES in pGRO7 plasmid (Takara Bio Inc, Japan) was co-expressed with Fatty Acid Amide Hydrolase (FAAH) to improve solubility of the protein expressed in E coli. […] Briefly, the bacterial cultures in Luria Broth (2 L) were induced with arabinose (2 mM) and Isopropyl (β-D-1-thiogalactopyranoside, IPTG (1 mM), for 20 h at room temperature. The cultures were centrifuged at 1200×g for 10 min and the cell pellet was resuspended in 100 mL buffer containing of 20 mM NaPi (pH 7.4), 100 mM NaCl, Benzonase (500u), Aprotinin (1 μg/mL) and Leupeptin (1 μg/mL). Cells were lyzed by sonication (Amp 20%, Pulse 15 s×15, on ice) and the cell debris removed by centrifugation at 5000×g for 20 min. The supernatant was enriched via ultracentrifugation at 100,000×g for 1 h and the cell pellet was resuspended in 16 mL buffer containing 20 mM NaPi (pH 7.8), 500 mM NaCl, 1% Triton X-100. The resuspended cell extract was subjected to ultra-centrifugation at 100,000×g for 1 h and the enriched supernatant was used in the in vitro assay. All protein extraction steps were carried out on ice or at 4° C.
The assay was carried out in 200 μL volume in a 96-well black polystyrene plate (Greiner Bio-one, Germany). Each reaction consisted of human Fatty Acid Amide Hydrolase (FAAH) protein and 10 μM AAMCA in assay buffer containing 50 mM HEPES, 1 mM EDTA and 0.1% BSA, pH 7.4. The reaction was incubated with 2 μL of varying concentrations of inhibitor in DMSO (final concentration of DMSO 1%) with shaking for 1 min and monitored for increase in fluorescence in kinetic mode for 50 min. […] Rate of reaction as a function of the concentration of the inhibitor was used to determine the IC50 of the inhibitors. Data was analyzed using GraphPad Prism 5 (GraphPad Software Inc., San Diego, Calif.). The activity of the compounds for rat Fatty Acid Amide Hydrolase (FAAH) was evaluated as described above with rat Fatty Acid Amide Hydrolase (FAAH) protein and 10 μM AAMCA substrate.

[3] = human FAAH, read-out: hFAAH IC50

human Fatty Acid Amide Hydrolase (FAAH), sequence (O00519 30-579): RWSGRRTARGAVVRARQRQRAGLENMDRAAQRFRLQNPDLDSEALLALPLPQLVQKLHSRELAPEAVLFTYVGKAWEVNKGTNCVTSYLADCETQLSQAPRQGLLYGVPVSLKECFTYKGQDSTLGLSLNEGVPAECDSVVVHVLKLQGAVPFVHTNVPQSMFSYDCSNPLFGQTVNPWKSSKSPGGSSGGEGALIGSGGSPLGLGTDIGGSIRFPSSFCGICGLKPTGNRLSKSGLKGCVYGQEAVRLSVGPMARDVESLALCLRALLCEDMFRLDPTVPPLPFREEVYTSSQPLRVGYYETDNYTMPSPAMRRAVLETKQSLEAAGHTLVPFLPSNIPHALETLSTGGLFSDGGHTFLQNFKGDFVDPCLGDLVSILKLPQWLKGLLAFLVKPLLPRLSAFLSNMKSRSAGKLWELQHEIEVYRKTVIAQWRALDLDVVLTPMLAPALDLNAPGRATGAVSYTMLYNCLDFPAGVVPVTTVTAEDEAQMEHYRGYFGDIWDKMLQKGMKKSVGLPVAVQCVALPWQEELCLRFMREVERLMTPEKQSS
rat Fatty Acid Amide Hydrolase (FAAH), sequence (P97612 30-579): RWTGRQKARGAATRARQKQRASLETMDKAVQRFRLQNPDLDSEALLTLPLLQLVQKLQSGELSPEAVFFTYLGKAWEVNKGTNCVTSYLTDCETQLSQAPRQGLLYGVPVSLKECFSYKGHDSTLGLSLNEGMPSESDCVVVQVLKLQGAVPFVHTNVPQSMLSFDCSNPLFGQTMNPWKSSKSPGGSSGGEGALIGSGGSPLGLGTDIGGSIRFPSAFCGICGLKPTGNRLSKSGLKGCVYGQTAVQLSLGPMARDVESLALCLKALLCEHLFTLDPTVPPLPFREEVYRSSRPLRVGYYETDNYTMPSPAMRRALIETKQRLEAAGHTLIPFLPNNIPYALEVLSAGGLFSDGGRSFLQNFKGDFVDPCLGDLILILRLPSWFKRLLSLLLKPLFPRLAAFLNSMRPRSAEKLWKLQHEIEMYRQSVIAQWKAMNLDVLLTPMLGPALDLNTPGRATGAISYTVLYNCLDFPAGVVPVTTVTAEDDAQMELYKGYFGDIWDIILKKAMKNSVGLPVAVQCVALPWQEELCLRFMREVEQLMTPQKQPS

Structure (SMILES)	IC50 ([1]; read-out: hFAAH IC50) [nM]	IC50 ([2]; rat FAAH, read-out: rFAAH IC50) [nM]	IC50 [1, 3] [nM]	also measured
O=C(NC1CCC(=Cc2cccc(Oc3ccc(C(F)(F)F)cn3)c2)CC1)c1c[nH]c2ccccc12 (single isomer, unassigned; (+)) [Example 20.A-17, (+)-N-[4-[[3-[[5-(trifluoromethyl)-2-pyridyl]oxy]phenyl]methylene]cyclohexyl]-1H-indole-3-carboxamide]	155			inhibition at 10 µM ([2]; read-out: rFAAH % inhibition at 10 uM, rat FAAH, 10 uM): 90%
Nc1ccc(C(=O)NC2CCC(=Cc3cccc(Oc4ccc(C(F)(F)F)cn4)c3)CC2)cn1 (single isomer, unassigned; (-)) [Example 20.A-4, (−)-6-Amino-N-[4-[[3-[[5-(trifluoromethyl)-2-pyridyl]oxy]phenyl]methylene]cyclohexyl]pyridine-3-carboxamide]	1	11		
Cc1cc(C(=O)NC2CCC(=Cc3cccc(Oc4ccc(C(F)(F)F)cn4)c3)CC2)cnc1N (single isomer, unassigned; (-)) [Example 20.A-6, (−)-6-Amino-5-methyl-N-[4-[[3-[[5-(trifluoromethyl)-2-pyridyl]oxy]phenyl]methylene]cyclohexyl]pyridine-3-carboxamide]		10	1	
O=C(NC1CCC(=Cc2cccc(Oc3ccc(C(F)(F)F)cn3)c2)CC1)c1c[nH]nc1C(F)(F)F (single isomer, unassigned; (-)) [Example 20.A-8, (−)-3-(Trifluoromethyl)-N-[4-[[3-[[5-(trifluoromethyl)-2-pyridyl]oxy]phenyl]methylene]cyclohexyl]-1H-pyrazole-4-carboxamide]	1	30		
Nc1ncc(C(=O)NC2CCC(=Cc3cccc(Oc4ccc(C(F)(F)F)cn4)c3)CC2)cn1 (single isomer, unassigned; (-)) [Example 20.A-10]	0.6	7		
O=C(NC1CCC(=Cc2cccc(Oc3ccc(C(F)(F)F)cn3)c2)CC1)c1cn[nH]c1 (single isomer, unassigned; (-)) [Example 20.A-12, (−)-N-[4-[[3-[[5-(trifluoromethyl)-2-pyridyl]oxy]phenyl]methylene]cyclohexyl]-1H-pyrazole-4-carboxamide]		35.5	1.7	
O=C(NC1CCC(=Cc2cccc(Oc3ccc(C(F)(F)F)cn3)c2)CC1)c1cnc2[nH]ccc2c1 (single isomer, unassigned; (-)) [Example 20.A-14, (−)-N-[4-[[3-[[5-(trifluoromethyl)-2-pyridyl]oxy]phenyl]methylene]cyclohexyl]-1H-pyrrolo[2,3-b]pyridine-5-carboxamide]	1	8.6		
O=C(NC1CCC(=Cc2cccc(Oc3ccc(C(F)(F)F)cn3)c2)CC1)c1cccnn1 (single isomer, unassigned; (-)) [Example 20.A-16, (−)-N-[4-[[3-[[5-(trifluoromethyl)-2-pyridyl]oxy]phenyl]methylene]cyclohexyl]pyridazine-3-carboxamide]	4	115		
O=C(NC1CCC(=Cc2cccc(Oc3ccc(C(F)(F)F)cn3)c2)CC1)c1c[nH]c2ccccc12 (single isomer, unassigned; (-)) [Example 20.A-18, (−)-N-[4-[[3-[[5-(trifluoromethyl)-2-pyridyl]oxy]phenyl]methylene]cyclohexyl]-1H-indole-3-carboxamide]			4	IC50 [2]: 35 nM
O=C(Nc1ncc(Cl)s1)C1CCC(=Cc2cccc(Oc3ccc(C(F)(F)F)cn3)c2)CC1 (stereo not drawn) [Example 1.1, N-(5-Chlorothiazol-2-yl)-4-[[3-[[5-(trifluoromethyl)-2-pyridyl]oxy]phenyl]methylene]cyclohexanecarboxamide]		60	16	
O=C(Nc1cnccn1)C1CCC(=Cc2cccc(Oc3ccc(C(F)(F)F)cn3)c2)CC1 (stereo not drawn) [Example 1.A-3, N-Pyrazin-2-yl-4-[[3-[[5-(trifluoromethyl)-2-pyridyl]oxy]phenyl]methylene]cyclohexanecarboxamide]		44	9	
Cc1ccc(C(=O)NC2CCC(=Cc3cccc(Oc4ccc(C(F)(F)F)cn4)c3)CC2)cn1 (stereo not drawn) [Example 2.2, 6-Methyl-N-[4-[[3-[[5-(trifluoromethyl)-2-pyridyl]oxy]phenyl]-methylene]cyclohexyl]pyridine-3-carboxamide]	5	28		
O=C(NC1CCC(=Cc2cccc(Oc3ccc(C(F)(F)F)cn3)c2)CC1)c1cc[nH]n1 (stereo not drawn) [Example 2.A-1, N-[4-[[3-[[5-(Trifluoromethyl)-2-pyridyl]oxy]phenyl]methylene]cyclohexyl]-1H-pyrazole-3-carboxamide]		418	10	
O=C(NC1CCC(=Cc2cccc(Oc3ccc(C(F)(F)F)cn3)c2)CC1)c1ccccn1 (stereo not drawn) [Example 2.A-4, N-[4-[[3-[[5-(Trifluoromethyl)-2-pyridyl]oxy]phenyl]methylene]cyclohexyl]pyridine-2-carboxamide]			508	inhibition at 30 µM ([2]; read-out: rFAAH % inhibition at 30 uM, rat FAAH, 30 uM): 70%
O=C(NC1CCC(=Cc2cccc(Oc3ccc(C(F)(F)F)cn3)c2)CC1)c1cnccn1 (stereo not drawn) [Example 2.A-5, N-[4-[[3-[[5-(Trifluoromethyl)-2-pyridyl]oxy]phenyl]methylene]cyclohexyl]pyrazine-2-carboxamide]			9	inhibition at 0.1 µM ([2]; rat FAAH): 27%
O=C(NC1CCC(=Cc2cccc(Oc3ccc(C(F)(F)F)cn3)c2)CC1)c1ccc(C(F)(F)F)nc1 (stereo not drawn) [Example 2.A-6, 6-(Trifluoromethyl)-N-[4-[[3-[[5-(trifluoromethyl)-2-pyridyl]oxy]phenyl]methylene]cyclohexyl]pyridine-3-carboxamide]			102	inhibition at 0.1 µM ([2]; rat FAAH): 37%
O=C(NC1CCC(=Cc2cccc(Oc3ccc(C(F)(F)F)cn3)c2)CC1)c1ccncc1 (stereo not drawn) [Example 2.A-8, N-[4-[[3-[[5-(Trifluoromethyl)-2-pyridyl]oxy]phenyl]methylene]cyclohexyl]pyridine-4-carboxamide]			14	inhibition at 0.1 µM ([2]; rat FAAH): 14%
O=C(NC1CCC(=Cc2cccc(Oc3ccc(C(F)(F)F)cn3)c2)CC1)c1cn[nH]c1 (stereo not drawn) [Example 2.A-9, N-[4-[[3-[[5-(Trifluoromethyl)-2-pyridyl]oxy]phenyl]methylene]cyclohexyl]-1H-pyrazole-4-carboxamide]		53	2	
O=C(NC1CCC(=Cc2cccc(Oc3ccc(C(F)(F)F)cn3)c2)CC1)c1cccnn1 (stereo not drawn) [Example 2.A-11, N-[4-[[3-[[5-(Trifluoromethyl)-2-pyridyl]oxy]phenyl]methylene]cyclohexyl]pyridazine-3-carboxamide]	11	194		
O=C(NC1CCC(=Cc2cccc(Oc3ccc(C(F)(F)F)cn3)c2)CC1)c1cncnc1 (stereo not drawn) [Example 2.A-12, N-[4-[[3-[[5-(Trifluoromethyl)-2-pyridyl]oxy]phenyl]methylene]cyclohexyl]pyrimidine-5-carboxamide]	3	100		
O=C(NC1CCC(=Cc2cccc(Oc3ccc(C(F)(F)F)cn3)c2)CC1)c1ccc(F)nc1 (stereo not drawn) [Example 2.A-14, 6-Fluoro-N-[4-[[3-[[5-(trifluoromethyl)-2-pyridyl]oxy]phenyl]methylene]cyclohexyl]pyridine-3-carboxamide]	10			inhibition at 0.1 µM ([2]; rat FAAH): 25%
O=C(NC1CCC(=Cc2cccc(Oc3ccc(C(F)(F)F)cn3)c2)CC1)c1cncc(F)c1 (stereo not drawn) [Example 2.A-15, 5-Fluoro-N-[4-[[3-[[5-(trifluoromethyl)-2-pyridyl]oxy]phenyl]methylene]cyclohexyl]pyridine-3-carboxamide]				IC50 ([1]; hFAAH IC50): 5 nM; IC50 [2]: 188 nM
O=C(NC1CCC(=Cc2cccc(Oc3ccc(C(F)(F)F)cn3)c2)CC1)c1ncccn1 (stereo not drawn) [Example 2.A-16, N-[4-[[3-[[5-(Trifluoromethyl)-2-pyridyl]oxy]phenyl]methylene]cyclohexyl]pyrimidine-2-carboxamide]			15	inhibition at 0.1 µM ([2]; rat FAAH): 38%
O=C(NC1CCC(=Cc2cccc(Oc3ccc(C(F)(F)F)cn3)c2)CC1)c1ccnnc1 (stereo not drawn) [Example 2.A-17, N-[4-[[3-[[5-(Trifluoromethyl)-2-pyridyl]oxy]phenyl]methylene]cyclohexyl]pyridazine-4-carboxamide]			10	inhibition at 0.1 µM ([2]; rat FAAH): 14%

— patent publication US9682953B2, “Amide compounds, compositions and applications thereof” (Advinus Therapeutics Limited, priority 2011, dated 2017)
